Experiments:
SQSTM1 mRNA = SQSTM1 mRNA abundance by RT-qPCR in MDA-MB-231 cells; format: cell-based, human; details: 48 h treatment
Description: (§1) Analysis of mRNA Abundance by RT-qPCR. Unless stated otherwise, all RT-qPCR experiments were performed to measure nascent RNA levels by using Click-it Nascent RNA Capture Kit (Cat #C10365, Thermo Fisher) per the manufacturer's protocols. Briefly, cells were treated with 0.2 mM of ethynyl uridine (EU) in growth medium for 16 h, after which the medium was replaced with fresh growth medium lacking EU. Compound or ASO treatment was performed at the same time of initial EU treatment, and compounds were replenished after replacing the medium to remove EU. Total RNA was extracted by using a Zymo Quick-RNA Miniprep Kit as per manufacturer's protocol with DNase treatment. The click reaction and pull-down of nascent RNA were performed as described in “In Vitro Chemical-Crosslinking and Isolation by Pull-down (Chem-CLIP) with Fluorescently Labeled RNA”. Reverse transcription (RT) was performed by using 300 ng total RNA and a QScript cDNA synthesis kit (QuantaBio) per manufacturer's protocols qPCR was performed in 384-well plates by using Power SYBR Green Master Mix (Life Technologies) on a QuantStudioS™ Cycler (Applied Biosystems) using the “Comparative Ct with Melt” method.

QSOX-1b = test: QSOX1-b protein abundance by Western blotting in MDA-MB-231 cells; format: cell-based, human
Description: (§2) Measuring Protein Abundance by Western Blotting. MDA-MB-231 cells were seeded in 6-well plates at ˜50% confluency and treated with vehicle (DMSO) or compound as described above but without EU treatment. After 16 h, the compound-containing growth medium was removed and replaced with fresh medium containing compound (re-dosing). After an additional 32 h incubation, total protein was harvested (48 h total treatment time). The cells were then washed twice with cold 1×DPBS, and total protein was harvested by using Mammalian Protein Extraction Reagent (M-PER, Thermo Scientific) per the manufacturer's protocol. Protein concentration was quantified by using BCA Protein Assay Kit (Pierce), and the proteins were separated by using 10% SDS-polyacrylamide gel (20 μg protein per lane). After gel electrophoresis in 1× Running Buffer (50 mM MOPS, 50 mM Tris-base, pH 7.5, 1 mM EDTA, and 0.1% (w/v) SDS) at 120 V for 1 h, the proteins were transferred to a PVDF membrane (0.45 μm, Cytiva) at 300 mA for 1 h in 1× Transfer Buffer (25 mM Bicine, 25 mM Tris-base, pH 7.5, 1:4 MeOH:H2O). The membrane was blocked with 5% (w/v) non-fat dry milk in TBST (1×TBS containing 0.1% (v/v) Tween-20) for 1 h at room temperature. […] Expression levels of proteins were quantified based on band intensity by using ImageJ. […]

QSOX1-a mRNA = QSOX1-a mRNA abundance by RT-qPCR in MDA-MB-231 cells; format: cell-based, human; set-up: dose or concentration left out as unconfirmed; details: at the, the highest dose
Description: as §1

QSOX1-a protein = QSOX1-a protein abundance by Western blotting in MDA-MB-231 cells; format: cell-based, human; details: 10 μM
Description: as §2, with “temperature. The primary antibody for QSOX1 protein (Cat #10092-932, Proteintech) or SQSTM1 protein (Cat #ab 109012, Abcam) was incubated with 1:1000 dilutions at 4° C. for 16 h. The membrane was then washed by TBST four times (5 min each) and then incubated with the secondary antibody (Cat #7074S, Cell Signaling) with 1:5000 dilution at room temperature for 2 h. The membrane was washed with TBST four times (5 min each) and imaged by using a SuperSignal West Pico Chemiluminescent Substrate (Pierce) per manufacturer's protocol. The blot was stripped by washing the membrane in 1× Stripping Buffer (200 mM glycine, pH 2.2, 4 mM SDS, 1% (v/v) Tween 20) at room temperature for 30 min, followed by blocking again as described above.” for “temperature.”

[1] = tested on: mutant RNA (U-bulge mutated to U/A base pair); test: Optical melting, mutant model RNA; format: binding
Description: Optical Melting Experiments. The thermal stability of WT and mutant model RNAs in the presence and absence of F1-Amide was measured by optical melting. The RNA ([…]) was prepared in 1× Melting Buffer (8 mM Na2HPO4, pH 7, 10 mM NaCl, and 1 mM EDTA) and heated to 95° C. followed by cooling on ice. F1-Amide was added to the final concentration of 2 mM; an equal volume of DMSO was added to the vehicle sample. The absorbance of the solution at 260 nm was measured by a Beckman Coulter DU800 spectrophotometer as a function of temperature, from 12° C. to 85° C. at a rate of 1° C./min. The background absorbance of buffer with DMSO or compound was subtracted before fitting the curve with MeltWin (v3.5)^7 to determine the melting temperature (Tm) and the Gibbs free energy (ΔG37° C.).

SMILES	effect on SQSTM1 mRNA levels (SQSTM1 mRNA)	effect on QSOX-1b levels (QSOX-1b)	decrease of QSOX1-a mRNA levels (QSOX1-a mRNA) [%]	reduction of QSOX1-a protein abundance (QSOX1-a protein) [%]	effect on Tm or ΔG37° C. of mutant RNA [1]
CCOC(=O)C1=C(Nc2ccccc2)S/C(=C\c2ccc(OCCOCCOCCOCCNC(=O)CCC(=O)N(C)[C@H]3CC[C@@H](c4ccc(Cl)c(Cl)c4)c4ccccc43)c(O)c2)C1=O [Compound F1-RIBOTAC]	No significant effect	no effect	~35	~35	
C#CCCC1(CCC(=O)N(C)[C@H]2CC[C@@H](c3ccc(Cl)c(Cl)c3)c3ccccc32)N=N1 [Compound F1]					No changes

— US20250346943A1, “DEGRADER COMPOUNDS OF QSOX1 mRNA” (UNIVERSITY OF FLORIDA RESEARCH FOUNDATION, INCORPORATED, priority 2022, published 2025)
